“Also recorded” adds a separate entry of the source. Like-named read-outs stand apart in the source and are kept apart here. Marks after values point to notes of the source that are not given here.
Experiments:
[1] = Thermostability assay using SYPRO Orange; assay type: physicochemical
Experimental: The stability of ATB200 in acidic or neutral pH buffers was evaluated in a thermostability assay using SYPRO Orange, as the fluorescence of the dye increases when proteins denature. […] As summarized in Table 10, the addition of miglustat increased the melting temperature (Tm) of ATB200 by nearly 10° C.

pediatric IOPD patient = details: for LVEF / LVMI: 2 D
[2] = system: single fibers isolated from the white gastrocnemius of Gaa KO mice; experiment: Single fiber analysis (LAMP1/LC3 co-immunofluorescence); assay type: in vivo
Excerpt: FIG. 17 depicts co-immunofluorescent staining of LAMP1 (green) (see for example, “B”) and LC3 (red) (see, for example, “A”) in single fibers isolated from the white gastrocnemius of Gaa KO mice treated with a vehicle, alglucosidase alfa, or ATB200. “C” depicts clearance of autophagic debris and absence of enlarged lysosome. A minimum of 30 fibers were examined from each animal.
As a result, a significant portion of muscle fibers analyzed (36-60%) from ATB200-treated mice appeared normal or near-normal.

[3] = system: pediatric patient with infantile Pompe disease; experiment: Example 16: pediatric IOPD patient switched from Myozyme to ATB200/AT2221; assay type: in vivo, human
Excerpt: A patient with severe infantile Pompe disease presented. The patient underwent a comprehensive physical examination, measurement of GAA enzyme activity, genetic testing of the GAA gene and muscle biopsy to establish the diagnosis.
The patient received the high-dose enzyme replacement therapy with Myozyme after diagnosis. The patient responded very poorly to therapy. Due to rapidly progressing Pompe disease and inadequate response to therapy, the patient's survival was at risk. For the patient, the opportunity arose to receive the new ATB200/AT2221 ERT via a compassionate use/Expanded Access Program (EAP).
The index patient has regular measurement of the urinary Glc4-levels since the change of the ERT to ATB200. The Glc4-levels were determined by an established method from the Duke University. The analysis of Glc4 is standardized as a butyl-4-aminobenzoate derivative using [^13C6] Glc4 as the internal standard (IS). The measurement is performed as ultra-performance liquid chromatography-tandem mass spectrometry (UPLC-MS/MS). The Glc4-values are then normalized to creatinine.
The patient presented with IOPD at 6 months and was started on the standard dose of Myozyme (20 mg/kg/bi-weekly). Due to the inadequate response to therapy, the dose was doubled just one month after the start of therapy in form of a weekly administration of Myozyme. […] But the cardiological situation deteriorated progressively.
Therefore, just three months after initiation of therapy, the dose was again doubled to 40 mg/kg/weekly, so the patient received a total of four times the standard dose. With the intensification of ERT and cardiac therapy, the patient's condition initially stabilized. Nevertheless, over the next few months, the patient's general condition steadily deteriorated, and the patient decompensated, especially respiratory.
The patient was switched from Myozyme to ATB200/AT2221 after eight months of insufficient Myozyme therapy response. The patient was […] at the time of the therapy switch. The new therapy (via EAP) was initiated with the oral administration of 30 mg premedication AT2221 (Miglustat) one hour prior to enzyme administration. ATB200 was administered at a bi-weekly interval at a dosage of 20 mg/kg. In the further course of treatment, the dosage of premedication and ERT was repeatedly adjusted and optimized (see Table 22). Some actual dosages in Table 22 (e.g., 37 mg/kg and 34.5 mg/kg at 32 and 38 months, respectively) varied from the target dose (e.g., 30 mg/kg) to avoid waste of extra material left in vials.
The Gross Motor Function Measure 66 (GMFM 66) is used to quantify a patients' motor skills. The GMFM 66 is a worldwide standardized test developed and validated for children with cerebral palsy to measure the development of gross motor function over time. During testing 66 items are examined and a score from 0 to 100 points is possible.

CIMPR = CIMPR (Homo sapiens, UniProt P11717); experiment: CIMPR plate binding assay
Sequence of CIMPR (P11717 41-2491, species assumed): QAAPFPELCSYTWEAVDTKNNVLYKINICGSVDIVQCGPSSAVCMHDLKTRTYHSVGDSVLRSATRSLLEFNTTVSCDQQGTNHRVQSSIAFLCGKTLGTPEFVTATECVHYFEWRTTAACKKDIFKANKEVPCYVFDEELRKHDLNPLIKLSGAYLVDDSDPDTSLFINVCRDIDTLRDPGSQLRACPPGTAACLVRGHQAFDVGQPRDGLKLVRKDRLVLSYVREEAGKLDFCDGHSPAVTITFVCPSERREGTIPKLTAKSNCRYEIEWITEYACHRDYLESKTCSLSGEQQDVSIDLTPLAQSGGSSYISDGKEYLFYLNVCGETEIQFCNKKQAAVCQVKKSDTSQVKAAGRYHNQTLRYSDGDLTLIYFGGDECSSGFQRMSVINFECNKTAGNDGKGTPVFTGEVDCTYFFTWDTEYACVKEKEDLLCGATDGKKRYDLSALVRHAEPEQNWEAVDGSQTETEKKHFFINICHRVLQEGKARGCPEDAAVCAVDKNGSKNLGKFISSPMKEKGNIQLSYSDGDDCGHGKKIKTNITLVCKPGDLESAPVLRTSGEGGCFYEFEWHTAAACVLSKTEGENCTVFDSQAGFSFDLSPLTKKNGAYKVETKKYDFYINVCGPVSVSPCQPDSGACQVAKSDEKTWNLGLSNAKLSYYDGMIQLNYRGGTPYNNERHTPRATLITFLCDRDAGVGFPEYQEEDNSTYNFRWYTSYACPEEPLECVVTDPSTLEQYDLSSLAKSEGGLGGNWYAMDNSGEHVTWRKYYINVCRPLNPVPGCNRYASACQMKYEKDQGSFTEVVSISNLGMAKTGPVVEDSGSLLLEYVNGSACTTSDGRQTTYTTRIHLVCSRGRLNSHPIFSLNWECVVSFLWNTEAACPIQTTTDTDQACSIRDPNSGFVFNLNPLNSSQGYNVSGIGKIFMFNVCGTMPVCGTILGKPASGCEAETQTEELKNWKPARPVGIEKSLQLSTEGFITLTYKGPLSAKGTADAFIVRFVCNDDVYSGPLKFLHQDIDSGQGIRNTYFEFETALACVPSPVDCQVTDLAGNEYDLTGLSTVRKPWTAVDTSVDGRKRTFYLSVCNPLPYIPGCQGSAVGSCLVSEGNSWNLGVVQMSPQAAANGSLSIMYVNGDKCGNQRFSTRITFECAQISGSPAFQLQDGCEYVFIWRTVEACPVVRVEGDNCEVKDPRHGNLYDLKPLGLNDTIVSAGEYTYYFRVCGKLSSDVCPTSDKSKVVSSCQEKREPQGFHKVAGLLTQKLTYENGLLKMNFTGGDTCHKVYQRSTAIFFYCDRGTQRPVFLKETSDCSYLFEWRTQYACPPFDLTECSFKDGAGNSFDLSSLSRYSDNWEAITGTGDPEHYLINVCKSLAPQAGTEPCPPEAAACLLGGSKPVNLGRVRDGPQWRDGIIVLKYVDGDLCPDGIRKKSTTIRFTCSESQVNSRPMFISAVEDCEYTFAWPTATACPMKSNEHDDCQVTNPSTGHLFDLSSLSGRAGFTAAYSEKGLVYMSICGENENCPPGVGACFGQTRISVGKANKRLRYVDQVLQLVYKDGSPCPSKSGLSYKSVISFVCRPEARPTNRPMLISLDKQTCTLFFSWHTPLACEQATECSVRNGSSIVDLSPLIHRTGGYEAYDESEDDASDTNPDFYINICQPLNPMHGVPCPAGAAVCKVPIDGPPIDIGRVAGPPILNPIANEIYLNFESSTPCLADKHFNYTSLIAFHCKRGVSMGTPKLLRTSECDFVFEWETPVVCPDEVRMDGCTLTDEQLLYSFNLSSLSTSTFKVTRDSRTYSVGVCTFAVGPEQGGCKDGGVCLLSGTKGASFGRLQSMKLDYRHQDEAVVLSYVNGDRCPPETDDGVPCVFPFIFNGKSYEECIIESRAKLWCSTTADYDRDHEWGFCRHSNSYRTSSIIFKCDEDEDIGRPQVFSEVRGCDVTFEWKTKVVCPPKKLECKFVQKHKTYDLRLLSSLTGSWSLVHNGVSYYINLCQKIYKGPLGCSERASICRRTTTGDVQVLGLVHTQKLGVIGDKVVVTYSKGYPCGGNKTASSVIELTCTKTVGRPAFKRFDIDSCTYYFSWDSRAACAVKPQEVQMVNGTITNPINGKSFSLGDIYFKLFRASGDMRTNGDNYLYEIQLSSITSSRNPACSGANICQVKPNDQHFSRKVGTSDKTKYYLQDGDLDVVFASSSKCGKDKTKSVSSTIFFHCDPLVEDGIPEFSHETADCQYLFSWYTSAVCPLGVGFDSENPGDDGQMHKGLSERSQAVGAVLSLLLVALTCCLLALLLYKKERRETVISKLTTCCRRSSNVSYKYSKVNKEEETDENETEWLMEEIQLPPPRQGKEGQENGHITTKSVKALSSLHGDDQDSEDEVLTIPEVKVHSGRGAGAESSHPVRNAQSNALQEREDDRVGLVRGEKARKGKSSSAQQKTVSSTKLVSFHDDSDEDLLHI
Experimental: In addition to having a greater percentage of rhGAA that can bind to the CIMPR, it is important to understand the quality of that interaction. LUMIZYME® and ATB200 receptor binding was determined using a CIMPR plate binding assay. Briefly, CIMPR-coated plates were used to capture GAA. Varying concentrations of rhGAA were applied to the immobilized receptor and unbound rhGAA was washed off. The amount of remaining rhGAA was determined by GAA activity. […] For LUMIZYME®, there is on average only 10% of molecules having a bis-phosphorylated N-glycan. In contrast, on average every rhGAA molecule in ATB200 has at least one bis-phosphorylated N-glycan.
N-glycan analysis via MALDI-TOF mass spectrometry confirmed that on average each ATB200 molecule contains at least one natural bis-M6P N-glycan structure.

**Q.** For “ATB200: recombinant human acid α-glucosidase with a high content of N-glycans bearing mono-M6P and bis-M6P, produced from a GA-ATB200 cell line”, which Tm ([1]; pH 5.2) is on record?
**A.** 67.3 °C

**Q.** And the Tm ([1]; pH 7.4)?
**A.** 56.2 °C

**Q.** And the “increase of melting temperature (Tm) by addition of miglustat” value ([1]; pH 7.4)?
**A.** ~10 °C

**Q.** And the Tm ([1]; pH 7.4 + 10 μM miglustat)?
**A.** 61.6 °C

**Q.** What about the Tm ([1]; pH 7.4 + 30 μM miglustat) of the same substance?
**A.** 62.9 °C

**Q.** And the Tm ([1]; pH 7.4 + 100 μM miglustat)?
**A.** 66.0 °C

**Q.** What about the CK (pediatric IOPD patient; AT2221 115 mg QW) of the same substance?
**A.** 1187 U/L

**Q.** And the Pro-BNP (pediatric IOPD patient; AT2221 115 mg QW)?
**A.** 44.29 pg/mL

**Q.** And the CK (pediatric IOPD patient; ATB200 20 mg/kg QW)?
**A.** 1834 U/L

**Q.** What about the Glc4 (pediatric IOPD patient; ATB200 20 mg/kg QW) of the same substance?
**A.** 41.53 mmol/mol CRE

**Q.** What about the Pro-BNP (pediatric IOPD patient; ATB200 20 mg/kg QW) of the same substance?
**A.** 36.3 pg/mL

**Q.** What about the Pro-BNP (pediatric IOPD patient; ATB200 20 mg/kg q2w) of the same substance?
**A.** 151.5 pg/mL

**Q.** What about the Glc4 (pediatric IOPD patient; ATB200 20 mg/kg, AT2221 130 mg) of the same substance?
**A.** 29.08 mmol/mol CRE

**Q.** And the Pro-BNP (pediatric IOPD patient; ATB200 20 mg/kg, AT2221 130 mg)?
**A.** 45.52 pg/mL

**Q.** What about the Pro-BNP (pediatric IOPD patient; ATB200 25 mg/kg QW) of the same substance?
**A.** 33.24 pg/mL

**Q.** What about the LVEF (pediatric IOPD patient; ATB200 25 mg/kg QW) of the same substance?
**A.** 60.3%

**Q.** What about the LVMI (pediatric IOPD patient; ATB200 25 mg/kg QW) of the same substance?
**A.** 43.6 g/m^2

**Q.** And the CK (pediatric IOPD patient; ATB200 30 mg/kg, AT2221 130 mg)?
**A.** 1146 U/L

**Q.** And the Pro-BNP (pediatric IOPD patient; ATB200 30 mg/kg, AT2221 130 mg)?
**A.** 29.25 pg/mL

**Q.** What about the LVEF (pediatric IOPD patient; ATB200 30 mg/kg, AT2221 130 mg) of the same substance?
**A.** 57%

**Q.** And the LVMI (pediatric IOPD patient; ATB200 30 mg/kg, AT2221 130 mg)?
**A.** 39.1 g/m^2

**Q.** And the CK (pediatric IOPD patient; Change AT2221 to 115 mg QW)?
**A.** 1277 U/L

**Q.** And the CK (pediatric IOPD patient; Change ATB200 to 20 mg/kg QW)?
**A.** 1674 U/L

**Q.** What about the Glc4 (pediatric IOPD patient; Change ATB200 to 20 mg/kg QW) of the same substance?
**A.** 50.74 mmol/mol CRE

**Q.** What about the LVEF (pediatric IOPD patient; Change ATB200 to 20 mg/kg QW) of the same substance?
**A.** 61.1%

**Q.** And the LVMI (pediatric IOPD patient; Change ATB200 to 20 mg/kg QW)?
**A.** 38 g/m^2

**Q.** What about the CK (pediatric IOPD patient; Change ATB200 to 25 mg/kg QW) of the same substance?
**A.** 1524 U/L

**Q.** What about the Glc4 (pediatric IOPD patient; Change ATB200 to 25 mg/kg QW) of the same substance?
**A.** 34.85 mmol/mol CRE

**Q.** And the Pro-BNP (pediatric IOPD patient; Change ATB200 to 25 mg/kg QW)?
**A.** 231.9 pg/mL

**Q.** And the CK (pediatric IOPD patient; Change ATB200 to 30 mg/kg QW)?
**A.** 1661 U/L

**Q.** What about the Glc4 (pediatric IOPD patient; Change ATB200 to 30 mg/kg QW) of the same substance?
**A.** 36.19 mmol/mol CRE

**Q.** What about the Pro-BNP (pediatric IOPD patient; Change ATB200 to 30 mg/kg QW) of the same substance?
**A.** 180.6 pg/mL

**Q.** And the CK (pediatric IOPD patient; change to ATB200 20 mg/kg q2w)?
**A.** 1393-1444 U/L

**Q.** And the Glc4 (pediatric IOPD patient; change to ATB200 20 mg/kg q2w)?
**A.** 32.58 mmol/mol CRE

**Q.** What about the LVEF (pediatric IOPD patient; change to ATB200 20 mg/kg q2w) of the same substance?
**A.** 41%

**Q.** And the LVMI (pediatric IOPD patient; change to ATB200 20 mg/kg q2w)?
**A.** 42 g/m^2

**Q.** And the “skin rash, dyspnea, cough, pale-like complexion” value (pediatric IOPD patient; human, in vivo, 30 mg/kg)?
**A.** had not developed any skin rash, dyspnea, cough, or pale-like complexion

**Q.** And the “Fibers with Autophagy Buildup” value [2]?
**A.** 40-64%*

**Q.** What about the “Fibers with Normal or Near-normal Appearance” value [2] of the same substance?
**A.** 36-60%

**Q.** And the “Lysosome Enlargement” value [2]?
**A.** dramatically decreased lysosome size; also recorded: Dramatic size

**Q.** And the “GMFM 66 score” value ([3]; 16.5 months of ATB200 therapy)?
**A.** 17.0 points

**Q.** What about the “GMFM 66 score” value ([3]; 24 months of ATB200 therapy) of the same substance?
**A.** 24.0 points

**Q.** What about the “GMFM 66 score” value ([3]; 28 months of ATB200 therapy) of the same substance?
**A.** 29.3 points

**Q.** What about the “urinary Glc4 levels” value ([3]; biweekly 20 mg/kg) of the same substance?
**A.** remained relatively constant

**Q.** What about the “urinary Glc4 levels” value ([3]; dose increase to 25 mg/kg/bi-weekly and switch to weekly 30 mg/kg at 19 months of age) of the same substance?
**A.** increase

**Q.** What about the “urinary Glc4 levels” value ([3]; since 32 months of age (FIG. 71)) of the same substance?
**A.** decrease of the values to the initial level

**Q.** And the Kd (CIMPR; M6P receptor plate binding assays)?
**A.** 2 to 4 nM

**Q.** What about the “binding to CIMPR” value (CIMPR; compared with LUMIZYME (FIG. 10A)) of the same substance?
**A.** significantly better
